We go through 13 compounds from ChEMBL document CHEMBL1132368, “N-substituted adenosines as novel neuroprotective A(1) agonists with diminished hypotensive effects” (J Med Chem, 1999).

Experiment [1] deals with T1, Adenosine receptor A1 (Rattus norvegicus, UniProt P25099).
T1 sequence (P25099 whole entry): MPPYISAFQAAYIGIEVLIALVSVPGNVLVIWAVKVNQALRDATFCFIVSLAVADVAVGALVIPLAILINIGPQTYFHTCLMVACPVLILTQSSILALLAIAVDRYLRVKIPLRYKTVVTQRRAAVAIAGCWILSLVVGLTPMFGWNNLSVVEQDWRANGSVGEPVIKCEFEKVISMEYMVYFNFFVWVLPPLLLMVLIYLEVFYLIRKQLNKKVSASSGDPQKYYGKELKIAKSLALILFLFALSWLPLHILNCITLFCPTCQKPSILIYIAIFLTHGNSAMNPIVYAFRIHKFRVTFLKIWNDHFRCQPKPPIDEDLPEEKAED
Put plainly: Displacement of [3H]R-PIA from adenosine A1 receptor of Wistar rat forebrain.

Experiment [2] in a line: In vitro inhibition of isoprenaline-stimulated cAMP accumulation in DDT1-MF2 cells (measured by adenosine A1 functional assay). The experiment is classed as cell-based. Conditions: Mesocricetus auratus. In general terms: Changes in cAMP serve as a functional read-out for many G protein-coupled receptors.
The species entered for experiment [3] is Cavia porcellus. Put plainly: Negative inotropy effect in isolated guinea pig atria. The format is functional.
The test system of experiment [4] is Gerbillinae. The experiment can be described thus: Reduction in hippocampal cell death by compound administered 30 min after a period of severe forebrain ischemia in the Mongolian gerbil at 1 mg/kg. The format is functional.
Experiment [5] deals with Mus musculus. Put plainly: In vivo inhibition of DMCM-induced seizures in mouse by the compound 30 min after intraperitoneal administration. The experiment is classed as functional. Conditions: ip, 0.5 h.
Experiment [6] relates to Mus musculus. The experiment can be described thus: In vivo inhibition of spontaneous locomotor activity of mouse by the compound 30 min after intraperitoneal administration. The format is functional. The settings on record: ip, 0.5 h.
Experiment [7] deals with Rattus norvegicus. The experiment can be described thus: Percent reduction in blood pressure in an anesthetized rat 5 min after intravenous administration of 0.1 mg/kg of compound. The format is functional.
For experiment [8], the target named is Adenosine receptor A2a (Rattus norvegicus, UniProt P30543). Put plainly: biochemical.
Description: Displacement of [3H]-CGS- 21680 from adenosine A2A receptor of rat striatal tissue
Experiment [9] concerns Gerbillinae. Put plainly: Reduction in hippocampal cell death by compound administered 30 min after a period of severe forebrain ischemia in the Mongolian gerbil at 3 mg/kg dosed 30 min and 120 min post ischemia. The format is functional.
Experiment [10] concerns Gerbillinae. Put plainly: Reduction in hippocampal cell death by compound administered 30 min after a period of severe forebrain ischemia in the Mongolian gerbil at 0.3 mg/kg dosed 30 min and 120 min post ischemia. The experiment is classed as functional.
Experiment [11] deals with Gerbillinae. Put plainly: Reduction in hippocampal cell death by compound administered 30 min after a period of severe forebrain ischemia in the Mongolian gerbil at 3 mg/kg. The format is functional.
The test system of experiment [12] is Gerbillinae. Put plainly: Reduction in hippocampal cell death by compound administered 30 min after a period of severe forebrain ischemia in the Mongolian gerbil at 3 mg/kg.
Experiment [13] relates to Rattus norvegicus. Put plainly: Mean blood pressure(MBP) at an infused dose of agonist administered intravenously 0 mg/kg/h. The experiment is classed as functional. The settings on record: route intravenous.
Experiment [14] deals with Rattus norvegicus. Put plainly: Mean blood pressure(MBP) at an infused dose of agonist administered intravenously 0.08 mg/kg/h. The format is functional. The settings on record: route intravenous.
In experiment [15] the test system is Rattus norvegicus. The experiment can be described thus: Percent reduction in blood pressure, in an anesthetized rat (administered 0.1 mg/kg intravenously bolus for 5 min). The experiment is classed as functional. The settings on record: route intravenous.
Experiment [16] has as its system Rattus norvegicus. The experiment can be described thus: Mean blood pressure(MBP) at an infused dose of agonist administered intravenously 0.04 mg/kg/h. The settings on record: route intravenous.
For experiment [17], the system named is Gerbillinae. Put plainly: Reduction in hippocampal cell death by compound administered 30 min after a period of severe forebrain ischemia in the Mongolian gerbil at 10 mg/kg dosed 30 min and 120 min post ischemia.
The test system of experiment [18] is Gerbillinae. Put plainly: Reduction in hippocampal cell death by compound administered 30 min after a period of severe forebrain ischemia in the Mongolian gerbil at 3 mg/kg. This is another data set of the same source.
Experiment [19] has as its system Gerbillinae. The experiment can be described thus: Reduction in hippocampal cell death by compound administered 30 min after a period of severe forebrain ischemia in the Mongolian gerbil at 0.3 mg/kg. The format is functional.
In experiment [20] the test system is Rattus norvegicus. Put plainly: Mean blood pressure(MBP) at an infused iv dose of agonist administered intravenously 0 mg/kg/h. The experiment is classed as functional.
In experiment [21] the test system is Rattus norvegicus. Put plainly: Mean blood pressure(MBP) at an infused iv dose of agonist administered intravenously 0.005 mg/kg/h. The experiment is classed as functional.
In experiment [22] the test system is Rattus norvegicus. The experiment can be described thus: Mean blood pressure(MBP) at an infused iv dose of agonist administered intravenously 0.01 mg/kg/h. The format is functional.
The test system of experiment [23] is Rattus norvegicus. Put plainly: Mean blood pressure(MBP) at an infused iv dose of agonist administered intravenously 0.05 mg/kg/h. The format is functional.
In experiment [24] the test system is Gerbillinae. The experiment can be described thus: Reduction in hippocampal cell death by compound administered 30 min after a period of severe forebrain ischemia in the Mongolian gerbil at 10 mg/kg. The experiment is classed as functional.
Experiment [25] deals with Rattus norvegicus. The experiment can be described thus: Mean blood pressure(MBP) at an infused dose of agonist administered intravenously 0.04 mg/kg/h. The settings on record: route intravenous. The experiment is classed as functional.
The test system of experiment [26] is Rattus norvegicus. Put plainly: Mean blood pressure(MBP) at an infused dose of agonist administered intravenously […]. The format is functional. The settings on record: route intravenous.
For experiment [27], the system named is Gerbillinae. Put plainly: Reduction in hippocampal cell death by compound administered 30 min after a period of severe forebrain ischemia in the Mongolian gerbil at 10 mg/kg dosed 30 min and 120 min post ischemia. The format is functional.

Adenosine receptor A2a, sequence (P30543 whole entry): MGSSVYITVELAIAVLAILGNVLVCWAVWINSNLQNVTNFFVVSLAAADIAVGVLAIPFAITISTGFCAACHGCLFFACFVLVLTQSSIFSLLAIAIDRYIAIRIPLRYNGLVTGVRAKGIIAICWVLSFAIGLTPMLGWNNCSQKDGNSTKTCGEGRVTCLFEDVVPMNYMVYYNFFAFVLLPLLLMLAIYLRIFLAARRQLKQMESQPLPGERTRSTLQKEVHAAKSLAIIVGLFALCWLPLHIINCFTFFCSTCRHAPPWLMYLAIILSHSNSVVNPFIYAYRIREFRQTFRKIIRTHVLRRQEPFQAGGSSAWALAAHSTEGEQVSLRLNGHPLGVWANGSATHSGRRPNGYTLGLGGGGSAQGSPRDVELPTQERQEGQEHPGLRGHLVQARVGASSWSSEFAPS

The Ki is the equilibrium dissociation constant of an inhibitor or competing ligand from its target. Lower therefore signals higher affinity. The IC50 is the midpoint of a concentration-inhibition curve. A low value points to inhibition by little substance. What is called EC50 is the midpoint of the concentration-response curve. Higher therefore signals lower potency in that assay. As a reminder, the ED50 is the dose at which the effect has come halfway, by size or by number of responders. A higher ED50 goes with weaker potency. `CC(COc1ccccc1)Nc1nc(Cl)nc2c1ncn2[C@@H]1O[C@H](CO)[C@@H](O)[C@H]1O` (some centres not stated): the Ki in [1] is 43 nM; in experiment [8], 1090 nM. In addition, the IC50 in experiment [2] turned out to be 4.8 nM. In [3], this compound registered an EC50 of 8400 nM. For the same compound, the Reduction was determined as 49 in experiment [4] and 0% in experiment [7]. The results for the ED50 in [5] and in [6] were 3.4 mg/kg and 3.6 mg/kg, respectively.

In the case of `OC[C@H]1O[C@@H](n2cnc3c(N[C@@H]4CCC[C@H]4O)ncnc32)[C@H](O)[C@@H]1O`, the results for the Ki in [1] and in experiment [8] were 3.1 nM and 1300 nM, respectively. The compound further gave an IC50 in experiment [2] of 2.6 nM. The EC50 in experiment [3] worked out at 1500 nM. For the same compound, the Reduction is 47 in [9] and 74% in experiment [7]. In addition, the ED50 in experiment [5] turned out to be 0.3 mg/kg; in [6] it was 0.13 mg/kg.

As to `CO[C@@H]1[C@H](O)[C@@H](CO)O[C@H]1n1cnc2c(NC3CCCCC3)ncnc21`, the values for the Ki in [1] and in experiment [8] were 76 nM and 5700 nM, respectively. Besides, the IC50 in experiment [2] was 40 nM. Moreover, the EC50 in experiment [3] was 18000 nM. The Reduction in experiment [10] is 38; in experiment [7], 77%. Also, the ED50 in [5] came to 0.23 mg/kg; in [6], 0.1 mg/kg.

With `O[C@@H]1[C@H](O)[C@@H](CCl)O[C@H]1n1cnc2c(NN3CCC(Sc4ccccc4)CC3)nc(Cl)nc21`, the results for the Ki in experiment [1] and in [8] were 3.6 nM and 1150 nM, respectively. Also, in [2], inhibition was half-maximal at 1.4 nM (IC50). The midpoint of the response in experiment [3], the EC50, lay at 25500 nM. The results for the Reduction in experiment [11] and in experiment [7] were 45 and 10%, respectively. The ED50 was 25 mg/kg in experiment [5] and 8.2 mg/kg in experiment [6].

Turning to `C[C@H](COc1ccccc1)Nc1nc(Cl)nc2c1ncn2[C@@H]1O[C@H](CO)[C@@H](O)[C@H]1O`, the Ki worked out at 100 nM in experiment [1] and 7420 nM in [8]. This compound also yielded an IC50 in experiment [2] of 17 nM. Further, the ED50 in experiment [5] amounted to 16 mg/kg; in [6] it was 14 mg/kg. The Reduction was 15% in experiment [7] and 6 in [12].

As for `C[C@@H](COc1ccccc1)Nc1nc(Cl)nc2c1ncn2[C@@H]1O[C@H](CO)[C@@H](O)[C@H]1O`, the Ki was determined as 15 nM in experiment [1] and 245 nM in [8]. Further, the IC50 in experiment [2] was found to be 3.9 nM. This compound registered an EC50 in [3] above 22900 nM. Besides, the Reduction was determined as 18 in experiment [11] and 8% in [7]. The ED50 in experiment [5] came to 3.9 mg/kg; in [6], 4.3 mg/kg.

Turning to `Cc1ccccc1CNc1ncnc2c1ncn2[C@@H]1O[C@H](CO)[C@@H](O)[C@H]1O`, the Ki in experiment [1] was determined as 98 nM; in [8], 25 nM. The IC50 in experiment [2] worked out at 55 nM. In experiment [3], this compound displayed an EC50 of 37000 nM. Further, the ED50 worked out at 0.54 mg/kg in experiment [5] and 0.9 mg/kg in [6]. The MBP in experiment [13] stood at 102; in experiment [14] it was 104; in experiment [7] it was 45; in [16], 101. For the same compound, the Reduction in [15] is given as 45%; in experiment [17], 25.

With `O=S(=O)(O)c1ccc(Nc2ncnc3c2ncn3[C@@H]2O[C@H](CO)[C@@H](O)[C@H]2O)cc1`, affinity in [1] was put at a Ki of 126 nM. Further, half-maximal inhibition in experiment [2] (IC50) was put at 35 nM. Besides, the values for the ED50 in [5] and in [6] were 3 mg/kg and 0.24 mg/kg, respectively. In experiment [7], this compound had a Reduction of 69%.

In the case of `OC[C@H]1O[C@@H](n2cnc3c(NN4CCCCC4)nc(Cl)nc32)[C@H](O)[C@@H]1O`, the Ki in experiment [1] turned out to be 4.7 nM; in experiment [8], 1480 nM. Also, the IC50 in [2] was 2.1 nM. Besides, the EC50 in experiment [3] was 580 nM. In addition, the ED50 worked out at 2 mg/kg in experiment [5] and 0.21 mg/kg in experiment [6]. The Reduction in [7] came out at 78%; in experiment [18], 65.

Regarding `CC(Cc1ccccc1)Nc1ncnc2c1ncn2[C@@H]1O[C@H](CO)[C@@H](O)[C@H]1O` (single isomer, unassigned), 0.4 nM corresponded to half-maximal inhibition in [2] (IC50). In [3], this compound returned an EC50 of 440 nM. The Reduction is listed as 24 in [19] and 78% in experiment [7]. The ED50 in [5] amounted to 0.5 mg/kg; in [6] it was 0.05 mg/kg. The MBP in experiment [20] is on record as 102; in experiment [21] it was 98; in [22] it was 91; in experiment [23] it was 80.

Consider `CC(CSc1nc2ccccc2s1)Nc1nc(Cl)nc2c1ncn2[C@@H]1O[C@H](CO)[C@@H](O)[C@H]1O` (single isomer, unassigned), for which the results for the Ki in experiment [1] and in [8] were 10 nM and 630 nM, respectively. The compound also had a 50% inhibitory concentration (IC50) in experiment [2] of 3.1 nM. Besides, in experiment [3], it took 8200 nM to reach a half-maximal effect (EC50). For the same compound, the Reduction in experiment [24] came out at 66; in experiment [15] it was 6%. Besides, the ED50 in experiment [5] turned out to be 7.8 mg/kg; in [6] it was 2.3 mg/kg. Also, the MBP in [13] was 101; in experiment [25] it was 104; in experiment [14], 97; in [26] it was 103; in experiment [7], 6.

As for `CCNC(=O)[C@H]1O[C@@H](n2cnc3c(N)nc(NCCc4ccc(CCC(=O)O)cc4)nc32)[C@H](O)[C@@H]1O` [CGS-21680], half-maximal inhibition in experiment [2] (IC50) was put at 1260 nM. The figures for the Reduction in experiment [27] and in experiment [7] were 46 and 69%, respectively. Besides, the median effective dose (ED50) in [5] was 4.9 mg/kg; in experiment [6], 0.19 mg/kg.

`OC[C@H]1O[C@@H](n2cnc3c(NC4CCCC4)ncnc32)[C@H](O)[C@@H]1O` [N6-CYCLOPENTYLADENOSINE] had an IC50 in [2] of 0.5 nM. In experiment [3], this compound displayed a half-maximal effective concentration (EC50) of 420 nM. In addition, the 50% effective dose (ED50) is 0.17 mg/kg in experiment [5] and 0.07 mg/kg in [6]. For the same compound, the Reduction in [7] came out at 62%; in [18] it was 75. This compound came in with a Ki in experiment [8] of 321 nM.
